Here are results for 1 compound from patent US20140296178A1, “Combination Therapy with a Gallium Complex” (priority 2010, published 2014).

The test deals with multiple myeloma tumor cell line RPMI 8226. Briefly: Promega Cell Titer-Glo antiproliferative assay, single agent and combination. The format is cell-based, human. As to conditions: unit from figure X axis. How it is done:
The antiproliferative activity of tris(8-quinolinolato)gallium(III) and lenalidomide against the human multiple myeloma tumor cell line RPMI 8226 was determined with Promega's Cell Titer-Glo® assay. The human tumor cells were placed in a 96-well microculture plate at the appropriate density for 96 hours of total growth time. After 24 hours of incubation in a humidified incubator at 37° C. with 5% CO2 and 95% air, serially diluted test agents in growth medium were added to each well. After 96 total hours of culture in a CO2 incubator, the plates were processed with Cell Titer-Glo (Promega #G7571) according to manufacturer's instructions. Luminescence was detected using a Tecan GENios microplate reader. Percent inhibition of cell growth was calculated relative to untreated control wells. All tests were performed in duplicate at each concentration level. The IC50 value for the test agents was estimated using Prism 3.03 by curve-fitting the data using the following four parameter-logistic equation: […]
The same Promega Cell Titer-Glo® assay described above was used in the combination study. […] After 96 hours, the cell number was determined with the Cell Titer Glo® assay as described above. […]

What is called IC50 is the midpoint of a concentration-inhibition curve. As to `[Ga+3].[O-]c1cccc2cccnc12.[O-]c1cccc2cccnc12.[O-]c1cccc2cccnc12` [tris(8-quinolinolato)gallium(III)], the IC50 by setting is: (RPMI-8226, tris(8-quinolinolato)gallium(III) alone) ~900 nM; (RPMI-8226, with lenalidomide at a constant amount) 500 nM.
